Experimental data taken from article PMC8097335, “A High‐Affinity Calmodulin‐Binding Site in the CyaA Toxin Translocation Domain is Essential for Invasion of Eukaryotic Cells” (Advanced Science, 2021).

What was measured:
[1] = Peptide titrations by SUVs followed by tryptophan fluorescence (solution-to-membrane partition); type: physicochemical; details: POPC:POPG 8:2 SUVs, buffer A pH 7.4, 25 °C, tryptophan fluorescence ratio 330/370 nm; S.D. within ± 10%
Procedure: Lipid vesicles preparation
Small unilamellar vesicles (SUVs) and large unilamellar vesicles (LUVs) were prepared with POPC and POPG at a molar ratio of 8:2, at a lipid concentration of 10 mM in buffer A, as previously described 1. Briefly, SUVs and LUVs were prepared by reverse phase evaporation and filtered through polycarbonate filters of 1 μm and 0.2 μm of pore size diameter to obtain L UV. SUVs were further sonicated. The hydrodynamic diameters and mean net charge of the vesicles were measured by dynamic light scattering (DLS) and electrophoretic mobility, respectively, using a ZetaSizer NanoZS (Malvern Pananalytical , Orsay, France) 11.
Peptide titrations bySUV s and CaM followed by tryptophan fluorescence
Titrations were carried out with a FP-8200 Jasco spectrofluorimeter, equipped with a Pelt ie r - thermostated ETC-272T at 25°C. A bandwidth of 5 nm was used for both excitation and […]
(Hellma, France) with constant stirring. Fluorescence emission was recorded between 300 and […]
400 nm at a scan rate of 100 nm/min, with an excitation wavelength of 280 nm. Fluorescence emission spectra were corrected for SUV or CaM baselines . Fluorescence intensity ratio at 330 nm over 370 nm was use d to measure the partition coefficient (K X) of peptides between the solution andmembrane s 1, 12 and the affinity (K d) of peptides for CaM 13.
Determination of partition coefficient KX and dissociation constant Kd from […]
The partition coefficient KX is defined as the ratio of protein in the lipid (PL) and in buffer […]
(PW) pha se s 12, 14, expressed by: KKXX = [LL ]? , giving[PPWW ] [PPWW ]= [WW], where [W] the […]
concentration of water (55.5 M) and [L] the lipid concentration.
The fraction of peptide partitioned into the membrane, fPL, is equal to:
ffPPLL = [PPLL ][PPTT ]= [PPLL ][PPLL ]+[PPWW ]= 11+([PPWW ])= 11+( [WW]), where PT is the total concentration of peptides [PP TT ]= [PP LL ]+ [PP WW ]. […]
The equations a re fitted to the experimental data using the KaleidaGraph software, providing the KX and K d value s. The partition coefficient is related to the apparent dissociation constant:
KKXX × KKdd = [WW ] and to the free energy of partition ΔG Kx = -RTln(K X), where ΔG is the free energy in kcal/mol, R the gas constant (R = 1.98 x 10-3 kcal/mol/K) and T the temperature i n Kelvin. The free energy of peptide CaM interaction, ∆G Kd, is given by ΔG Kd = RTln(K d).
Sedimentation velocity-Analytical ultracentrifugation (SV -AUC) […]
ratio 1:1 (at 70 µM each). Samples were incubated 2h at 20°C in the ultracentrifuge and, then span at 42,000 rpm in an An-50 Ti rotor. […]

[2] = Peptide translocation across droplet interface bilayers (DIB); type: in vitro ADME; details: TAMRA (dye)-labeled peptide in cis, 15 min; for Peptide in trans droplet, 5 µM holo-CaM in trans: POPC:POPG 9:1 bilayer, CaCl2 2 mM cis vs 0.2 mM trans, epifluorescence, four to seven independent trials
Procedure: weak fluorescence signal. […]
fluorescence signal. The samples were prepared at the following final concentrations: 10 µM […]
concentration of CDZ wa s 14.5 mM in 100% DMSO. Addition of CDZ at a final concentration of 40 µ M gives a final concentration of less than 0.3 % of DMSO in the […]
Peptide translocation followed by droplet interface bilayerexperiments
An aqueous phase is prepared with buffer D or E and the oil phase is prepared with 15 % (v/v) of chloroform and 0.08%(w/v) of lipids (POP C: POP G at a 9:1molar ratio) in squalene.
A population of droplets is obtained by adding 2 µL of the aqueous phase to 20 µL of the oil phase before briefly shaking the mixture to create an invert emulsion. Two droplet populations were prepared: one containing the TAMRA-labeled peptide in buffer D , the “source”, cis-droplets and the other one containing buffer D or E, or in the presence or in the absence of calmodulin, the “capture”, trans -droplets. […] The fluorescence signals of the “source” and the “capture” droplets were monitored by epifluorescence microscopy for 15 minutes with an Olympus microscope and a MicroMax camera (Princeton Instrument). […]
Quantification of the translocation process is possible thanks to the analysis of the fluorescence images of the droplet pairs. Even if fluorescence is not directly proportional to peptide concentration due to photo-bleaching and small volume variations, one can hypothesize that the fluorescence intensities of the “source” and the “capture” droplets are proportional to the ratio of their concentrations. Moreover, as the initial concentration in the “source” droplet is known and as the total amount of peptide is conserved during the experience, we can write that: CCss (tt = 0) × VVss = CCss (tt ) × VVss + CCcc (tt ) × VVcc , where Ci is the concentration of the droplet i, Vi its volume, which was determined from microscopy images (i=”s” for the source droplet and “c” for the capture droplet). […]
CCcc = CCss (tt = 0) × VVss where F i is the fluorescence intensity measured fordroplet i. […]
analyzed in buffer C. […]

Compound	Partition coefficient KX [1]	Peptide in trans droplet, 5 µM holo-CaM in trans [2]	Peptide in trans droplet, 100 µM CaM in trans ([2]; calcium gradient 2 mM cis vs 0.2 mM trans, five to seven independent trials)
Ac-ASAHWGQEALQGAQAVAAAQELVHAIALMTQ-NH2 [P454 R12E]	80 ×10^3	do not accumulate	significant accumulation
CC[C@H](C)[C@H](NC(=O)[C@H](CCCCN)NC(=O)[C@H](Cc1c[nH]c2ccccc12)NC(=O)[C@H](CC(C)C)NC(=O)[C@H](CC(C)C)NC(=O)[C@H](CC(=O)O)NC(=O)[C@@H](NC(=O)[C@H](CCCNC(=N)N)NC(=O)[C@H](CCC(=O)O)NC(=O)[C@H](CCCNC(=N)N)NC(=O)[C@H](CC(=O)O)NC(=O)[C@H](CC(C)C)NC(C)=O)[C@@H](C)CC)C(=O)N[C@@H](C)C(=O)N[C@@H](CCCNC(=N)N)C(=O)N[C@@H](C)C(=O)NCC(=O)N[C@@H](C)C(=O)N[C@@H](CCCNC(=N)N)C(=O)N[C@@H](CO)C(=O)N[C@@H](C)C(=O)N[C@H](C(=O)NCC(N)=O)C(C)C [H-helix, reference compound]	–	do not accumulate	–
